# How the values were obtained:
# SERT = test: SPECT imaging in baboon; assay type: in vivo; settings: anesthetized baboon, 300-360 min
# Description: FIG. 7 is a graph showing time activity curves of [^123I]ZIENT in a baboon.
# The baboon was injected with 10 mCi of [^123I]ZIENT and serial images (128×128×64 matrix: pixel size=1.67×1.67 mm, slice, thickness=1.67 mm, voxel volume=4.66 mm^3) were acquired at 159 keV, in step and shoot mode at 10 min each for a total of 360 to 390 min and 32 to 35 acquisitions per experiment. Images were reconstructed using a ramp and a Butterworth filter (cutoff=0.65 cm-power factor=10). To identify brain regions, MRI scans of 1.5 mm contiguous slices were obtained with a 1.5 Tesla GE Signa device. Axial images were acquired using a spoiled GRASS (gradient recall acquisition in the steady state) sequence with TR=25 ms, TE=5 ms, NEX=2, matrix=256×192, field of view=16 cm. […] The uptake ratio of brainstem/cerebellum was 3.0:1 at 300-360 min.
# SERT sites = SERT sites (Macaca mulatta, UniProt Q9MYX0); test: SPECT imaging and fluvoxamine chase study in rhesus monkey; settings: for Displacement of tracer by fluvoxamine (SPECT): fluvoxamine 5 mg i.v., midbrain / brainstem; for Brain uptake by SPECT: midbrain by 54 min, brainstem at 80-110 min
# Sequence of SERT sites (Q9MYX0 whole entry): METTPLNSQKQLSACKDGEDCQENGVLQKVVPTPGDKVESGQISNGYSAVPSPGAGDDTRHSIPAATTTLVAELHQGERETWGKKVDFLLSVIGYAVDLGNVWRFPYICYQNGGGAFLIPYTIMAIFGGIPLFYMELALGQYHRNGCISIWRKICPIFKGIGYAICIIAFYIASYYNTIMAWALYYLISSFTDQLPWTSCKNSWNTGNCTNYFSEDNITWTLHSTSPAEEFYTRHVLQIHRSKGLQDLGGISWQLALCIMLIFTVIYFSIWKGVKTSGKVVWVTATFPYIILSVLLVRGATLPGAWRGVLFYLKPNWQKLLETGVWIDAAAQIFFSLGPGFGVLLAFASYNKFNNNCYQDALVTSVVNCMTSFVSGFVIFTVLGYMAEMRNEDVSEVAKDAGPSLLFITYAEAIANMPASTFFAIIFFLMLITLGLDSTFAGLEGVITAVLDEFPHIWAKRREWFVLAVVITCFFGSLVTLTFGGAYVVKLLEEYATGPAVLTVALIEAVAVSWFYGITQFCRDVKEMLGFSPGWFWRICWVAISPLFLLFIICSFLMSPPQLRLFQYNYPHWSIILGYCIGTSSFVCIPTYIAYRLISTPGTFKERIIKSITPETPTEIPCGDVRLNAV
# Excerpt: SPECT images were reconstructed as transaxial slices (3.2 mm) and attenuation corrected.
# rat brain SERT = rat brain SERT (Rattus norvegicus, UniProt P31652); test: Regional brain uptake of [123I]ZIENT in rats with blocking agents
# Sequence of rat brain SERT (P31652 whole entry): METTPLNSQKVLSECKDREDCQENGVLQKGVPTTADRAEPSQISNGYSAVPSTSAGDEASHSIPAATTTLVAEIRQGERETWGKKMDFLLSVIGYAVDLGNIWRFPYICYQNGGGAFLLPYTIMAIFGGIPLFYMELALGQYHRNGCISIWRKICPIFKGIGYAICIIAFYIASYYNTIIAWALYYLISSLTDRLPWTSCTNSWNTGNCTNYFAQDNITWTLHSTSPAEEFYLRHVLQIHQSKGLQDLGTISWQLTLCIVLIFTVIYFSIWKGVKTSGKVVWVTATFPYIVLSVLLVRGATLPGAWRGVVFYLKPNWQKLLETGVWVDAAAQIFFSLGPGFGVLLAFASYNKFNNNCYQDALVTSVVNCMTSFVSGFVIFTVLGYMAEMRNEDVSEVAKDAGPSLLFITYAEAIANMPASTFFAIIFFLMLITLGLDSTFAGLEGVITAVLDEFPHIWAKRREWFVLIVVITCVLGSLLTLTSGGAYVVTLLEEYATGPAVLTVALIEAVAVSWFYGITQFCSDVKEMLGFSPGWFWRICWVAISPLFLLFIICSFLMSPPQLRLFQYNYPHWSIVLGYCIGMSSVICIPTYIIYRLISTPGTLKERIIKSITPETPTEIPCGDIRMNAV
# [1] = Tissue uptake of [123I]ZIENT in rats; settings: rat
# [2] = 5 mg/kg i.v. 15 min prior, 60 min
# [3] = 60 min, Fluvoxamine 5 mg/kg i.v. 15 min prior
# [4] = 60 min, GBR 12909 5 mg/kg i.v. 15 min prior
# [5] = 60 min after i.v., listed as [^123]ZIENT
compound,measurement,setting,value
COC(=O)C1C2CCC(CC1c1ccc(C=C[123I])cc1)N2 (stereo not shown) [[^123I]ZIENT],Uptake ratio of brainstem/cerebellum,SERT,3.0
same,Displacement of tracer by fluvoxamine (SPECT),SERT sites,significant reduction of activity
same,Displacement of tracer by fluvoxamine (SPECT),SERT sites; listed as [^123I] ZIENT,significantly displaced
same,Brain uptake by SPECT,SERT sites,regions of highest uptake
same,Brain uptake by SPECT,SERT sites; listed as [^123I] ZIENT,high
same,Effect of GBR 12909 (DAT ligand) on tracer uptake in striatum,rat brain SERT; [2],did not significantly block
same,Effect of NET blocking agent (reboxetine) on regional brain uptake of tracer,rat brain SERT; [2],little effect
same,Effect of fluvoxamine (SERT ligand) on tracer uptake in hypothalamus and striatum,rat brain SERT; [2],significantly blocked
same,Hypothal/(CB) ratio,rat brain SERT; [3],1.3
same,"Regional uptake, Brain",rat brain SERT; [3],0.27 (0.24 0-0.30) % dose/g
same,"Regional uptake, Cerebellum",rat brain SERT; [3],0.18 (0.16-0.20) % dose/g
same,"Regional uptake, Frontal Cortex",rat brain SERT; [3],0.26 (0.23-0.29) % dose/g
same,"Regional uptake, Hypothalamus",rat brain SERT; [3],0.23 (0.18-0.27) % dose/g
same,"Regional uptake, Striatum",rat brain SERT; [3],0.28 (0.24-0.32) % dose/g
same,Striatum/(CB) ratio,rat brain SERT; [3],1.6
same,Hypothal/(CB) ratio,rat brain SERT; [4],1.8
same,"Regional uptake, Brain",rat brain SERT; [4],0.39 (0.37-0.42) % dose/g
same,"Regional uptake, Cerebellum",rat brain SERT; [4],0.21 (0.18-0.26) % dose/g
same,"Regional uptake, Frontal Cortex",rat brain SERT; [4],0.43 (0.38-0.47) % dose/g
same,"Regional uptake, Hypothalamus",rat brain SERT; [4],0.38 (0.34-0.41) % dose/g
same,"Regional uptake, Striatum",rat brain SERT; [4],0.40 (0.37-0.42) % dose/g
same,Striatum/(CB) ratio,rat brain SERT; [4],1.9
same,Hypothal/(CB) ratio,rat brain SERT; 60 min after i.v.,2.7
same,"Regional uptake, Brain",rat brain SERT; 60 min after i.v.,0.61 (0.56-0.63) % dose/g
same,"Regional uptake, Cerebellum",rat brain SERT; 60 min after i.v.,0.29 (0.28-0.31) % dose/g
same,"Regional uptake, Frontal Cortex",rat brain SERT; 60 min after i.v.,0.70 (0.65-0.78) % dose/g
same,"Regional uptake, Hypothalamus",rat brain SERT; 60 min after i.v.,0.7 % dose/g
same,"Regional uptake, Striatum",rat brain SERT; 60 min after i.v.,0.60 (0.54-0.63) % dose/g
same,Striatum/(CB) ratio,rat brain SERT; 60 min after i.v.,2.1
same,Hypothal/(CB) ratio,"rat brain SERT; 60 min after i.v., listed as [^123I] ZIENT",3
same,Hypothal/(CB) ratio,rat brain SERT; [5],2.7
same,"Regional uptake, Hypothalamus",rat brain SERT; [5],0.77 (0.69-0.83) % dose/g
same,Hypothal/(CB) ratio,rat brain SERT; 120 min after i.v.,4.4
same,"Regional uptake, Brain",rat brain SERT; 120 min after i.v.,0.40 (0.32-0.50) % dose/g
same,"Regional uptake, Cerebellum",rat brain SERT; 120 min after i.v.,0.12 (0.11-0.28) % dose/g
same,"Regional uptake, Frontal Cortex",rat brain SERT; 120 min after i.v.,0.48 (0.42-0.53) % dose/g
same,"Regional uptake, Hypothalamus",rat brain SERT; 120 min after i.v.,0.53 (0.44-0.60) % dose/g
same,"Regional uptake, Striatum",rat brain SERT; 120 min after i.v.,0.46 (0.37-0.55) % dose/g
same,Striatum/(CB) ratio,rat brain SERT; 120 min after i.v.,3.8
same,Hypothal/(CB) ratio,"rat brain SERT; 120 min after i.v., listed as [^123I] ZIENT",5
same,Hypothal/(CB) ratio,"rat brain SERT; 120 min after i.v., listed as [^123]ZIENT",4.4
same,Prefrontal cortex to cerebellum ratio,rat brain SERT; 120 min post injection,2.9
same,Clearance from the hypothalamus,rat brain SERT; at 120 min compared to 60 min post injection,30%
same,"Tissue uptake, Blood",[1]; 5 min after i.v.,0.64 (0.52-0.86) percent dose per gram
same,"Tissue uptake, Heart",[1]; 5 min after i.v.,2.41 (2.36-2.47) percent dose per gram
same,"Tissue uptake, Kidney",[1]; 5 min after i.v.,2.35 (2.16-2.67) percent dose per gram
same,"Tissue uptake, Liver",[1]; 5 min after i.v.,0.99 (0.73-1.33) percent dose per gram
same,"Tissue uptake, Lung",[1]; 5 min after i.v.,9.71 (7.9-11.8) percent dose per gram
same,"Tissue uptake, Muscle",[1]; 5 min after i.v.,0.30 (0.15-0.44) percent dose per gram
same,"Tissue uptake, Spleen",[1]; 5 min after i.v.,3.79 (3.28-4.67) percent dose per gram
same,"Tissue uptake, Testis",[1]; 5 min after i.v.,0.22 (0.19-0.27) percent dose per gram
same,"Tissue uptake, Thyroid",[1]; 5 min after i.v.,0.11 (0.08-0.12) percent dose per gram
same,"Tissue uptake, Blood",[1]; 30 min after i.v.,0.46 (0.43-0.49) percent dose per gram
same,"Tissue uptake, Heart",[1]; 30 min after i.v.,0.52 (0.48-0.55) percent dose per gram
same,"Tissue uptake, Kidney",[1]; 30 min after i.v.,0.66 (0.64-0.70) percent dose per gram
same,"Tissue uptake, Liver",[1]; 30 min after i.v.,0.43 (0.38-0.51) percent dose per gram
same,"Tissue uptake, Lung",[1]; 30 min after i.v.,1.48 (1.35-1.66) percent dose per gram
same,"Tissue uptake, Muscle",[1]; 30 min after i.v.,0.29 (0.25-0.32) percent dose per gram
same,"Tissue uptake, Spleen",[1]; 30 min after i.v.,1.24 (1.03-1.50) percent dose per gram
same,"Tissue uptake, Testis",[1]; 30 min after i.v.,0.36 (0.30-0.47) percent dose per gram
same,"Tissue uptake, Thyroid",[1]; 30 min after i.v.,0.23 (0.19-0.29) percent dose per gram
same,"Tissue uptake, Blood",[1]; 60 min after i.v.,0.39 (0.23-0.42) percent dose per gram
same,"Tissue uptake, Heart",[1]; 60 min after i.v.,0.36 (0.15-0.40) percent dose per gram
same,"Tissue uptake, Kidney",[1]; 60 min after i.v.,0.44 (0.29-0.50) percent dose per gram
same,"Tissue uptake, Liver",[1]; 60 min after i.v.,0.28 (0.11-0.30) percent dose per gram
same,"Tissue uptake, Lung",[1]; 60 min after i.v.,1.27 (0.62-1.44) percent dose per gram
same,"Tissue uptake, Muscle",[1]; 60 min after i.v.,0.20 (0.11-0.22) percent dose per gram
same,"Tissue uptake, Spleen",[1]; 60 min after i.v.,0.82 (0.50-0.94) percent dose per gram
same,"Tissue uptake, Testis",[1]; 60 min after i.v.,0.29 (0.26-0.34) percent dose per gram
same,"Tissue uptake, Thyroid",[1]; 60 min after i.v.,0.33 (0.17-0.37) percent dose per gram
same,"Tissue uptake, Blood",[1]; 120 min after i.v.,0.33 (0.31-0.36) percent dose per gram
same,"Tissue uptake, Heart",[1]; 120 min after i.v.,0.20 (0.18-0.24) percent dose per gram
same,"Tissue uptake, Kidney",[1]; 120 min after i.v.,0.32 (0.29-0.35) percent dose per gram
same,"Tissue uptake, Liver",[1]; 120 min after i.v.,0.29 (0.23-0.41) percent dose per gram
same,"Tissue uptake, Lung",[1]; 120 min after i.v.,0.72 (0.61-0.78) percent dose per gram
same,"Tissue uptake, Muscle",[1]; 120 min after i.v.,0.16 (0.14-0.18) percent dose per gram
same,"Tissue uptake, Spleen",[1]; 120 min after i.v.,0.51 (0.44-0.55) percent dose per gram
same,"Tissue uptake, Testis",[1]; 120 min after i.v.,0.30 (0.26-0.33) percent dose per gram
same,"Tissue uptake, Thyroid",[1]; 120 min after i.v.,1.61 (0.82-2.31) percent dose per gram
